Measurements published in BindingDB's records for doi:10.1021/jm00091a006 (University of Arizona, 1992).

Experiment: Compound was evaluated for its inhibitory potency against Opioid receptor delta 1 of Guinea pig ileum

| Structure (SMILES) | IC50 |
| --- | --- |
| C[C@H](c1ccc(O)cc1)[C@H](N)C(=O)N[C@H]1C(=O)NCC(=O)N[C@@H](Cc2ccccc2)C(=O)N[C@@H](C(=O)O)C(C)(C)SSC1(C)C | 3.4 µM |
| Cc1cc(O)ccc1C[C@@H](N)C(=O)N[C@H]1C(=O)NCC(=O)N[C@@H](Cc2ccccc2)C(=O)N[C@@H](C(=O)O)C(C)(C)SSC1(C)C | 6.61 µM |
| C[C@@H](c1ccc(O)cc1)[C@H](N)C(=O)N[C@H]1C(=O)NCC(=O)N[C@@H](Cc2ccccc2)C(=O)N[C@@H](C(=O)O)C(C)(C)SSC1(C)C | 7.18 µM |
| C[C@H](c1ccc(O)cc1)[C@@H](N)C(=O)N[C@H]1C(=O)NCC(=O)N[C@@H](Cc2ccccc2)C(=O)N[C@@H](C(=O)O)C(C)(C)SSC1(C)C | > 100 µM |
